Like-named read-outs stand apart in the source and are kept apart here.

We go through 9 compounds from US20060154892A1, “Procedure to block the replication of reverse transcriptase dependent viruses by the use of inhibitors of deoxynucleotides synthesis” (priority 1993, published 2006).

The subject of data set [1] is HIV-1 IIIB. Briefly: expected p24 expression in HIV-1 IIIB infected PHA-stimulated PBL with hydroxyurea and/or nucleoside analogs (Example 10). The data set is classed as cell-based. The protocol: PBL isolated from healthy donors are stimulated with PHA and IL-2 for 48 hours using standard protocols. At the same time, the cells are pre-treated with hydroxyurea alone or in combination with either ddI or fluorinated derivatives of chain-terminating nucleosides.

Data set [2] has as its target T1, HIV-1 RT (Human immunodeficiency virus type 1 group M subtype B, UniProt P04585). Description: Km of HIV-1 RT for dNTP, 600-base globin mRNA template. It counts as biochemical. Particulars: 600-base globin mRNA as template.
The test system of data set [3] is PBL. Particulars: doses corresponding to plasma concentrations in treated AIDS patients; cited from earlier work.
Data set [4] concerns HIV-1. Particulars: for effect on HIV-1 replication at the lowest levels: in some cases, only when used individually, FIG. 3.
Procedure: PBL from healthy donors were infected for 2 hour at 37° C. with HIV-1 [HTLV-IIIB] (m.o.i.=1) after 2 days stimulation with PHA and Interleukin-2 (IL-2). […] Every 3-4 days, supernatant was harvested for p24 analysis, cells were counted and fresh supernatant and drugs were added. Samples were analyzed for (a) p24 production in the supernatant, (b) count of viable cells, and (c) ratios between the values expressed in (a) and (b).
PBL were isolated and stimulated for 2 days with PHA and IL-2. […] The extent of HIV-1 infection was analyzed as described in Example 5. Samples were tested for (a) p24 production in the supernatant, (b) viable cell count.
In data set [5] the test system is HIV-1.
Source text: In the latter procedure, we measured p24 production during the course of an in vitro infection to assess the inhibition of HIV-1 replication in activated PBL.
The next data set has as its system HIV-1 strain Ba-L. Briefly: p24 production in primary human macrophages infected with HIV-1 Ba-L. It counts as cell-based. The conditions noted are these: for inhibition at 1000 µM: Human immunodeficiency virus 1, BAL, Macrophage. The protocol:
Macrophages were obtained by cell adhesion after purification of PBL from healthy donors. After 14 days treatment with granulocyte-macrophage-colony-stimulating factor, cells were infected overnight with the HIV-1 strain Ba-L (Gartner et al., Science 233:215 (1986)). […] Supernatants were harvested ever 4-5 days for p24 analysis and fresh supernatant and drugs were added.
Percentages of HIV-1 inhibition were calculated based on p24 production compared to the untreated control. Drug treatment of macrophages was suspended after 14 days.

In data set [6] the test system is HIV-1 IIIB. Particulars: for RT Activity: 1 mM hydroxyurea.
Data set [7] relates to primary human macrophages. The conditions noted are these: for Viable cells: Macrophages.
Data set [8] deals with HIV-1. Briefly: administration of hydroxyurea to HIV-1 seropositive volunteers, CD4+ T-cell count (Example 9). Particulars: 20-40 mg per kg per day, after one month of drug treatment. The data set is classed as in vivo, human. The protocol: One or more HIV-1 seropositive volunteers are first identified. Blood samples drawn from the volunteers are assayed for CD4^+T-cells using any suitable quantitation means. Such quantitation means include, but are not limited to, the flow cytometer. Over a period of from several weeks to months, the number of CD4^+T-cells is observed to decrease steadily as an indicator of disease progression.
The nucleoside analogs can be any of ddI, ddC or AZT, or combinations thereof.
When hydroxyurea is used in conjunction with a nucleoside analog, the dosage of the analog is determined according to convention in the medical and pharmaceutical arts.
After one month of drug treatment blood samples are again drawn and assayed for CD4^+T-cells.

In another data set the test system is HIV-1 [HTLV-IIIB]. Briefly: p24 production in activated PBL infected with HIV-1 [HTLV-IIIB], drugs added after infection. It counts as cell-based. The conditions noted are these: for inhibition at 1000 µM: Human immunodeficiency virus 1, IIIB, PBMC.
Data set [9] concerns dNTP pools in PHA stimulated PBL. Briefly: dNTP pools in HIV-1 infected PHA-stimulated PBL treated with hydroxyurea (enzyme assay). It counts as cell-based, human. Particulars: 1 mM hydroxyurea. As to the method: PBLs were cultured in the presence or absence of phytohemagglutinin A (PHA) at 10 μg/ml for 48 hours. Intracellular dNTP were extracted with 60% methanol and were examined by an enzyme assay using synthetic oligonucleotides (P. A. Sherman and A. J. Fyfe, 1989 Anal. Biochem. 180:222). Data represent the mean value of three experiments. […] The cellular volume of PBL was measured using a Coulter counter analizer and found to be approximately 0.25 μl/10^6 cells for quiescent PBL and 0.38 μl/10^6 cells for stimulated PBL, respectively.
Cell aliquots were harvested 24, 48 and 72 hours after infection and analyzed for the rate of dNTP synthesis inhibition (Sherman and Fyfe, supra) measured as the percentage of dNTP levels compared to the control cells.

For data set [10] the following is noted: cited from earlier work.
For data set [11], the system named is PBL. Description: count of viable cells in HIV-1 infected activated PBL culture. Particulars: for Viable cells: PBMC, 1 mM Hydroxyurea. It counts as cell-based, human.
Data set [12] deals with T1, HIV-1 RT. Briefly: in vitro activity of recombinant HIV-1 RT (primer extension assay). The data set is classed as biochemical. The conditions noted are these: 200 mM. As to the method:
We also assessed the in vitro activity of recombinant HIV-1 RT at dNTP concentrations that were equivalent to those found in quiescent and stimulated PBL. DNA was synthesized using a globin mRNA template and an oligo dT16 primer (a primer extension assay). The HIV-1 RT reaction mixture contained 50 mM Tris-HCl (pH 8.0), 6 mM MgCl2, 76 mM KCl, 0.5 mM DTT, 80 nM globin mRNA primed with oligo dT16 in 1:5 ratio, and dNTP at (a) the concentrations equivalent to quiescent cells and (b) the concentrations equivalent to stimulated cells as described in Table 1. Recombinant HIV-1 RT (obtained from American Biotechnologies) was used at 5 U/ml.

The mark [13] stands for this setting: nucleoside analog 20 μM, day 12.

Regarding `Nc1ncnc2c1ncn2[C@@H]1O[C@H](CO)C[C@@H]1F` [2′-F-dd-ara-A], the “p24 Expression after Infection” value is listed as “Low” in the data set with HIV-1 IIIB [1] (nucleoside analog 20 μM, day 4); “Medium” with HIV-1 IIIB [1] (nucleoside analog 20 μM, day 8); “Medium” with HIV-1 IIIB [1] (setting [13]).

Turning to `Nc1nc2c(ncn2[C@@H]2O[C@H](CO)C[C@@H]2F)c(=O)[nH]1` [2′-F-dd-ara-G], the “p24 Expression after Infection” value with HIV-1 IIIB [1] (nucleoside analog 20 μM, day 4) was “Low”; with HIV-1 IIIB [1] (nucleoside analog 20 μM, day 8), “Medium”; in the data set on HIV-1 IIIB [1] (setting [13]), “Medium”.

With `O=c1[nH]cnc2c1ncn2[C@@H]1O[C@H](CO)C[C@@H]1F` [2′-F-dd-ara-I], the “p24 Expression after Infection” value is on record as “Low” in the data set with HIV-1 IIIB [1] (nucleoside analog 20 μM, day 4); “Medium” with HIV-1 IIIB [1] (nucleoside analog 20 μM, day 8); “Medium” with HIV-1 IIIB [1] (setting [13]).

In general, Km refers to the substrate concentration at which the rate is half of its maximum. `Nc1ncnc2c1ncn2[C@H]1C[C@H](O)[C@@H](COP(=O)(O)OP(=O)(O)OP(=O)(O)O)O1` [dATP]: on HIV-1 RT [2], the Michaelis-Menten constant (Km) was 2.6 µM.

Take `Nc1ccn([C@H]2C[C@H](O)[C@@H](COP(=O)(O)OP(=O)(O)OP(=O)(O)O)O2)c(=O)n1` [dCTP]: on HIV-1 RT [2], the Michaelis-Menten constant (Km) was found to be 3.8 µM.

Regarding `Nc1nc2c(ncn2[C@H]2C[C@H](O)[C@@H](COP(=O)(O)OP(=O)(O)OP(=O)(O)O)O2)c(=O)[nH]1` [dGTP], on HIV-1 RT [2], the Km is 3.9 µM.

For `Cc1cn([C@H]2C[C@H](O)[C@@H](COP(=O)(O)OP(=O)(O)OP(=O)(O)O)O2)c(=O)[nH]c1=O` [dTTP], on HIV-1 RT [2], the Km stood at 4 µM.

As to `O=c1[nH]cnc2c1ncn2[C@H]1CC[C@@H](CO)O1` [ddI, didanosine], the “p24 Expression after Infection” value with HIV-1 IIIB [1] (nucleoside analog 20 μM, day 4) is listed as “Low”; in the data set on HIV-1 IIIB [1] (nucleoside analog 20 μM, day 8), “Medium”; with HIV-1 IIIB [1] (setting [13]), “Medium”. Moreover, the cytotoxicity entry in the data set on PBL [3] is given as “low”. Moreover, in the data set with HIV-1 [4], the “effect on HIV-1 replication at the lowest levels” value is reported as “stimulated HIV-1 replication”. Besides, the p24 after infection was 4 ng/mL in the data set with HIV-1 [5] (ddI 0.2 μM, day 4); 116 ng/mL in the data set on HIV-1 [5] (ddI 0.2 μM, day 8); 197 ng/mL in the data set on HIV-1 [5] (ddI 0.2 μM, day 12); 3 ng/mL in the data set with HIV-1 [5] (ddI 1 μM, day 4); 90 ng/mL in the data set with HIV-1 [5] (ddI 1 μM, day 8); 196 ng/mL in the data set on HIV-1 [5] (ddI 1 μM, day 12). The p24 after infection worked out at 1 ng/mL with HIV-1 [5] (ddI 5 μM, day 4); 58 ng/mL in the data set with HIV-1 [5] (ddI 5 μM, day 8); 125 ng/mL with HIV-1 [5] (ddI 5 μM, day 12); 1 ng/mL in the data set on HIV-1 [5] (ddI 20 μM, day 4); 25 ng/mL with HIV-1 [5] (ddI 20 μM, day 8); 51 ng/mL with HIV-1 [5] (ddI 20 μM, day 12).

The inhibition is how much of the control response was suppressed. A low value points to little suppression. Take `NC(=O)NO` [hydroxyurea]: the inhibition at 1000 µM with HIV-1 strain Ba-L (96 h), in the data set on HIV-1 strain Ba-L (168 h), in the data set on HIV-1 strain Ba-L (240 h), with HIV-1 strain Ba-L (336 h), in the data set with HIV-1 [HTLV-IIIB] (96 h) and in the data set with HIV-1 [HTLV-IIIB] (168 h) was 100% in each case. The inhibition at 1000 µM in the data set on HIV-1 [HTLV-IIIB] (240 h) and with HIV-1 [HTLV-IIIB] (336 h) was 100% each time. In addition, the HIV-1 replication result in the data set on HIV-1 strain Ba-L (continuous treatment with 1 mM hydroxyurea, macrophages) is given as “completely blocked HIV-1 replication”; with HIV-1 [4] (patient PBL, FIG. 3a), “inhibited HIV-1 replication in a dose-dependent manner”; with HIV-1 [HTLV-IIIB] (continuous treatment with 1 mM hydroxyurea, activated PBL), “completely blocked HIV-1 replication”. In addition, the “block of HIV-1 replication” value with HIV-1 strain Ba-L (hydroxyurea as low as 0.05 mM, macrophages) is on record as greater than 99.9%. In the data set on HIV-1 strain Ba-L (infected macrophages, several weeks after discontinuing, in some experiments), the “HIV-1 replication after discontinuing the drug treatment” value is “absence of HIV-1 replication”. Further, the “dose-dependent inhibition of HIV-1 production in macrophages compared with PBL” value in the data set on HIV-1 strain Ba-L (same donor for PBL and macrophages) was “consistently more potent than with primary PBL”. For the same compound, the “p24 Expression after Infection” value with HIV-1 IIIB [1] (HU 50 μM, day 4) is “Low”; with HIV-1 IIIB [1] (HU 50 μM, day 8), “Medium”; in the data set on HIV-1 IIIB [1] (HU 50 μM, day 12) it was “High”. For the same compound, the “RT Activity” value stood at 0.892 cpm/ml × 1000 in the data set with HIV-1 IIIB [6] (day 2), 0.589 cpm/ml × 1000 with HIV-1 IIIB [6] (day 5) and 0.434 cpm/ml × 1000 with HIV-1 IIIB [6] (day 9). Further, the “viral expression of RT” value in the data set with HIV-1 IIIB [6] (pre-infection treatment with 1 mM hydroxyurea) was “significantly reduced”. The “effect on HIV-1 replication at the lowest levels” value in the data set with HIV-1 [4] is “stimulated HIV-1 replication”. In addition, the cytotoxic effects result in [7] is reported as “no cytotoxic effects were observed”; in the data set with PBL [11] (0.1 mM hydroxyurea, continuous exposure, FIG. 1b), “some cytotoxic effects”. Moreover, the Viable cells in data set [7] (1 mM Hydroxyurea, day 4) was 300 thousands/cm^2; in [7] (1 mM Hydroxyurea, day 7), 280 thousands/cm^2; in data set [7] (1 mM Hydroxyurea, day 10), 270 thousands/cm^2; in data set [7] (1 mM Hydroxyurea, day 14), 270 thousands/cm^2; in data set [7] (day 21, drug suspension after 14 days) it was 260 thousands/cm^2; in [7] (day 28, drug suspension after 14 days) it was 240 thousands/cm^2. Besides, the Viable cells came to 190 thousands/cm^2 in [7] (day 35, drug suspension after 14 days); 500 thousands/ml with PBL [11] (day 4); 185 thousands/ml with PBL [11] (day 7); 87 thousands/ml with PBL [11] (day 10); 36 thousands/ml with PBL [11] (day 14). The p24 after infection with HIV-1 [5] (HU 10 μM, day 4) came out at 4 ng/mL; in the data set on HIV-1 [5] (HU 10 μM, day 8), 100 ng/mL; in the data set on HIV-1 [5] (HU 10 μM, day 12), 204 ng/mL; with HIV-1 [5] (HU 50 μM, day 4) it was 3 ng/mL; in the data set on HIV-1 [5] (HU 50 μM, day 8), 113 ng/mL; with HIV-1 [5] (HU 50 μM, day 12), 148 ng/mL. The p24 after infection is 2 ng/mL in the data set on HIV-1 [5] (HU 100 μM, day 4); 111 ng/mL in the data set with HIV-1 [5] (HU 100 μM, day 8); 116 ng/mL in the data set on HIV-1 [5] (HU 100 μM, day 12). For the same compound, the “CD4+ T-cell population” value in the data set with HIV-1 [8] is “stabilized or increased”. The “antiviral effect, p24 normalized to number of viable cells” value in the data set on HIV-1 [HTLV-IIIB] (low concentrations, FIG. 1c) is recorded as “not mediated by cytotoxicity”. Moreover, in the data set on HIV-1 [HTLV-IIIB] (used alone at low concentrations, FIG. 1a), the “HIV-1 replication (p24 in supernatant)” value is “inhibited in a dose-dependent manner”. The “dNTP pools in stimulated PBL” value in data set [9] is on record as “substantially depleted”. Moreover, in data set [10] (humans), the “blood concentration during standard clinical protocols” value was roughly 1000 µM. Besides, the absorption entry in data set [10] (oral ingestion) is recorded as “readily absorbed after oral ingestion”. Besides, the toxicity entry in the data set with PBL [11] (1 mM hydroxyurea, activated PBL) is “toxic effects at these concentrations were observed early”. The “cytostatic and cytotoxic effects” value in the data set on PBL [11] (decreased drug concentration, FIG. 1b) was “virtually disappeared”. Also, on HIV-1 RT [12], the “direct inhibition of RT enzymatic activity” value is “did not directly inhibit RT enzymatic activity”.
